Experimental data as given in patent US10633337B2, “Crystal forms of a 9-aminomethyl substituted tetracycline compound and a preparation method thereof” (KBP Biosciences Co., Ltd., priority 2016, dated 2020).

Key:
Type in all cases: physicochemical
[1] = Assay 2: stability (influencing factor tests) of crystal form II and crystal form IV; content by HPLC; conditions: for stability (conclusion in words): high temperature, high humidity and illumination
Method: Assay 2: Stability for Crystal Form II and Crystal Form IV of the Present Compound
Tested sample: crystal form II and crystal form IV of the compound represented by formula (1) were prepared according to Examples;
(§1) Test Conditions for Investigating the Influencing Factors:
(§2) High temperature tests: crystal form II and crystal form IV of the compound represented by formula (1) were laid on a dry and clean watch glass, and kept at 60° C.±5° C. for 15 days. Samples were taken respectively on Day 5 and Day 15. The content and the purity of the compound represented by formula (1) were measured, and compared with those of the sample taken on Day 0.
as §2, with “humidity test:” for “temperature tests:”, “25° C.±2° C., RH92.5%±5%, 25° C.±2° C., RH75%±5%, 40° C.±2° C., RH75%±5%” for “60° C.±5° C.”
as §2, with “Illumination test:” for “High temperature tests:”, “an illuminance of 4500 Lx±500 Lx in an illumination box” for “60° C.±5° C.”
(§3) Content: it was measured by using an external standard method in accordance with the High Performance Liquid Chromatography in Chinese Pharmacopoeia, Appendix V D, Edition 2010.
(§4) Purity: it was measured by using an area normalization method in accordance with the High Performance Liquid Chromatography in Chinese Pharmacopoeia, Appendix V D, Edition 2010.

[2] = Assay 1: stability (influencing factor tests: high temperature, high humidity, illumination) of amorphous form and crystal forms I, II, VII; content and purity by HPLC; conditions: for stability (conclusion in words): high temperature, high humidity and illumination
Method: Assay 1: Stability for Amorphous Form and Crystal Forms of the Present Compound
Tested sample: amorphous form, crystal form I, crystal form II, and crystal form VII of the compound represented by formula (1) were prepared according to Examples;
as §1
as §2, with “tests: amorphous form,” for “tests:”, “form I, crystal form II,” for “form II”, “form VII” for “form IV”, “for 14” for “for 15”, “Day 7” for “Day 5”, “Day 14.” for “Day 15.”
(§5) High humidity test: amorphous form, crystal form I, crystal form II, and crystal form VII of the compound represented by formula (1) were laid on a dry and clean watch glass, and kept at 25° C.±2° C., RH75%±5%, 40° C.±2° C., RH75%±5% for 14 days. Samples were taken respectively on Day 7 and Day 14. The content and the purity of the compound represented by formula (1) were measured, and compared with those of the sample taken on Day 0.
as §5, with “Illumination” for “High humidity”, “an illuminance of 4500 Lx±500 Lx in an illumination box” for “25° C.±2° C., RH75%±5%, 40° C.±2° C., RH75%±5%”
as §3, §4

[3] = Investigation of the stability of crystal form III at high humidity
Method: It is also found in the study that not all of crystal forms I, II, III, IV, V, VI, VII and VIII of the compound represented by formula (1) have better stability than the amorphous form. Specifically, in the investigation of the stability of crystal form III, the content of the compound is reduced by about 10% after being placed in a high humidity condition of 40° C./75%±5% RH for 14 days.
The data for investigating the stability was mentioned as above.

[4] = Day 0 (start of stability test)
[5] = High temperature 60° C., Day 14
[6] = Illumination 45001x ± 5001x, Day 14

| Content ([1]; 25° C./RH 75% ± 5%, Day 15) [%] | Content ([1]; 25° C./RH 92.5% ± 5%, Day 15) [%] | Content ([1]; 40° C./RH 75% ± 5%, Day 15) [%] | Content ([2]; 25° C./75% ± 5% RH, Day 7) [%] | Purity ([2]; 25° C./75% ± 5% RH, Day 7) [%] | Content ([2]; 25° C./75% ± 5% RH, Day 14) [%] | Purity ([2]; 25° C./75% ± 5% RH, Day 14) [%] | Content ([2]; 40° C./75% ± 5% RH, Day 7) [%] | Purity ([2]; 40° C./75% ± 5% RH, Day 7) [%] | Content ([2]; 40° C./75% ± 5% RH, Day 14) [%] | Purity ([2]; 40° C./75% ± 5% RH, Day 14) [%] | Content [2, 4] [%] | Purity [2, 4] [%] | Content ([2]; High temperature 60° C., Day 7) [%] | Purity ([2]; High temperature 60° C., Day 7) [%] | Content [2, 5] [%] | Purity [2, 5] [%] | Content [2, 6] [%] | Purity [2, 6] [%] | stability (conclusion in words) [2] | Compound | other results |
| --- | --- | --- | --- | --- | --- | --- | --- | --- | --- | --- | --- | --- | --- | --- | --- | --- | --- | --- | --- | --- | --- |
| 93.1 | 90.3 | 74.6 | – | – | – | – | – | – | – | – | – | – | – | – | – | – | – | – | – | CN(C)c1cc(CN2CC3CC3C2)c(O)c2c1C[C@H]1C[C@H]3[C@H](N(C)C)C(O)=C(C(N)=O)C(=O)[C@@]3(O)C(O)=C1C2=O (single isomer, unassigned) [Crystal form IV] | Content ([1]; 60° C., Day 15): 88.6%; Content ([1]; 4500 Lx ± 500 Lx, Day 15): 74.6%; Content [1, 4]: 97.0%; reduction of content ([1]; high temperature of 60° C. for 15 days): about 10%; stability (conclusion in words) [1]: changed very much; reduction of content ([1]; illumination 4500 Lx±500 Lx for 15 days): 23.1%; stability compared with amorphous form ([1]; illumination condition or high temperature condition): worse stability than the amorphous form |
| – | – | – | 96.1 | 97.1 | 95.8 | 97.2 | 94.6 | 96.4 | 94.5 | 95.7 | 95.8 | 97.4 | 95.2 | 96.8 | 93.6 | 96.2 | 95.7 | 96.6 | relatively high stability | CN(C)c1cc(CN2CC3CC3C2)c(O)c2c1C[C@H]1C[C@H]3[C@H](N(C)C)C(O)=C(C(N)=O)C(=O)[C@@]3(O)C(O)=C1C2=O (stereo partly drawn) [Crystal form VII, (4S,4aS,5aR,12aS)-9-(3-azabicyclo[3.1.0]hexan-3-ylmethyl)-4,7-bis(dimethylamino)-3,10,12,12a-tetrahydroxy-1,11-dioxo-1,4,4a,5,5a,6,11,12a-octahydrotetracene-2-carboxamide] | – |

Second part, the molecule before the results:

| Compound | Content ([1]; 25° C./RH 75% ± 5%, Day 15) [%] | Content ([1]; 25° C./RH 92.5% ± 5%, Day 15) [%] | Content ([1]; 40° C./RH 75% ± 5%, Day 15) [%] | Content ([2]; 25° C./75% ± 5% RH, Day 7) [%] | Purity ([2]; 25° C./75% ± 5% RH, Day 7) [%] | Content ([2]; 25° C./75% ± 5% RH, Day 14) [%] | Purity ([2]; 25° C./75% ± 5% RH, Day 14) [%] | Content ([2]; 40° C./75% ± 5% RH, Day 7) [%] | Purity ([2]; 40° C./75% ± 5% RH, Day 7) [%] | Content ([2]; 40° C./75% ± 5% RH, Day 14) [%] | Purity ([2]; 40° C./75% ± 5% RH, Day 14) [%] | Content [2, 4] [%] | Purity [2, 4] [%] | Content ([2]; High temperature 60° C., Day 7) [%] | Purity ([2]; High temperature 60° C., Day 7) [%] | Content [2, 5] [%] | Purity [2, 5] [%] | Content [2, 6] [%] | Purity [2, 6] [%] | stability (conclusion in words) [2] | other results |
| --- | --- | --- | --- | --- | --- | --- | --- | --- | --- | --- | --- | --- | --- | --- | --- | --- | --- | --- | --- | --- | --- |
| CN(C)c1cc(CN2CC3CC3C2)c(O)c2c1C[C@H]1C[C@H]3[C@H](N(C)C)C(O)=C(C(N)=O)C(=O)[C@@]3(O)C(O)=C1C2=O (single isomer, unassigned) [Crystal form II] | 98.3 | 96.7 | 98.0 | 95.9 | 96.3 | 96.1 | 96.2 | 96.5 | 96.2 | 96.1 | 96.1 | 94.5 | 96.4 | 95.8 | 96.1 | 96.0 | 96.0 | 96.1 | 96.2 | relatively high stability | Content ([1]; 60° C., Day 15): 97.0%; Content ([1]; 4500 Lx ± 500 Lx, Day 15): 97.8%; Content [1, 4]: 98.4%; stability (conclusion in words) [1]: higher stability than crystal form IV |
| CN(C)c1cc(CN2CC3CC3C2)c(O)c2c1C[C@H]1C[C@H]3[C@H](N(C)C)C(O)=C(C(N)=O)C(=O)[C@@]3(O)C(O)=C1C2=O (stereo partly drawn) [Amorphous form, (4S,4aS,5aR,12aS)-9-(3-azabicyclo[3.1.0]hexan-3-ylmethyl)-4,7-bis(dimethylamino)-3,10,12,12a-tetrahydroxy-1,11-dioxo-1,4,4a,5,5a,6,11,12a-octahydrotetracene-2-carboxamide] | – | – | – | 98.7 | 97.1 | 93.3 | 96.7 | 94.7 | 94.9 | 89.6 | 92.9 | 97.1 | 98.0 | 94.5 | 95.8 | 90.5 | 94.3 | 85.0 | 92.9 | unstable | reduction of content ([2]; after 14 days at a high temperature of 60° C.): 6.6%; reduction of content ([2]; after 14 days at high humidity 40° C./75%±5% RH): 7.5%; reduction of content ([2]; after 14 days under illumination of 4500 lx±500 lx): 12.1% |
| CN(C)c1cc(CN2CC3CC3C2)c(O)c2c1C[C@H]1C[C@H]3[C@H](N(C)C)C(O)=C(C(N)=O)C(=O)[C@@]3(O)C(O)=C1C2=O (stereo partly drawn) [Crystal form I, (4S,4aS,5aR,12aS)-9-(3-azabicyclo[3.1.0]hexan-3-ylmethyl)-4,7-bis(dimethylamino)-3,10,12,12a-tetrahydroxy-1,11-dioxo-1,4,4a,5,5a,6,11,12a-octahydrotetracene-2-carboxamide] | – | – | – | 97.2 | 98.1 | 98.2 | 98.1 | 97.4 | 98.0 | 97.5 | 97.8 | 97.0 | 98.2 | 97.7 | 97.9 | 97.3 | 97.7 | 97.8 | 98.1 | relatively high stability | – |
| CN(C)c1cc(CN2CC3CC3C2)c(O)c2c1C[C@H]1C[C@H]3[C@H](N(C)C)C(O)=C(C(N)=O)C(=O)[C@@]3(O)C(O)=C1C2=O (stereo partly drawn) [Crystal form III, (4S,4aS,5aR,12aS)-9-(3-azabicyclo[3.1.0]hexan-3-ylmethyl)-4,7-bis(dimethylamino)-3,10,12,12a-tetrahydroxy-1,11-dioxo-1,4,4a,5,5a,6,11,12a-octahydrotetracene-2-carboxamide] | – | – | – | – | – | – | – | – | – | – | – | – | – | – | – | – | – | – | – | – | reduction of content ([3]; high humidity 40° C./75%±5% RH for 14 days): about 10%; stability compared with amorphous form ([3]; high humidity condition): worse stability than the amorphous form |
